# Biological target: T1, P2X7 receptor (Homo sapiens, UniProt Q99572)
# T1 construct: host or cells: SH-SY5Y
# T1 sequence (Q99572 1-595): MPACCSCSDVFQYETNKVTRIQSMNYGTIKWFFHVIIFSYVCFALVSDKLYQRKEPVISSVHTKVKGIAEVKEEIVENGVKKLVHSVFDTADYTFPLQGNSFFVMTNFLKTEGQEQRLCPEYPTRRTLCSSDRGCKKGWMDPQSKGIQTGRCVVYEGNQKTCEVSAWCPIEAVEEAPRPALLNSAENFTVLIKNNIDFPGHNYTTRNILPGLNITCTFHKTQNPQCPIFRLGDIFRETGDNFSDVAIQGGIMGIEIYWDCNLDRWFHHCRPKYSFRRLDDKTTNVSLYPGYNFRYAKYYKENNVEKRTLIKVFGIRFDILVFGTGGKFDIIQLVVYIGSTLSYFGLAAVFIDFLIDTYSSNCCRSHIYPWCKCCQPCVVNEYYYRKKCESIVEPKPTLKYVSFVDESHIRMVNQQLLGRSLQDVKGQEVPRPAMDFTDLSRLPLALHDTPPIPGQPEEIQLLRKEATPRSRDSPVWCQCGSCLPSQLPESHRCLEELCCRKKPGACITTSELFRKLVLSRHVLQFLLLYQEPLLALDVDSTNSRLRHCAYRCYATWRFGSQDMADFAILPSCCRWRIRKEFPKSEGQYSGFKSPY
# Assay: P2X7 calcium mobilization assay, high throughput, antagonist activity (Example 4A)
# Format: cell-based
# Details: 50% decrease in the fluorescence response of cells exposed to 80 μM 2′(3′)-O-(4-benzoyl-benzoyl)adenosine 5′-triphosphate; Example 4A; read-out: IC50
# Method in brief: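 Antagonism was measured as calcium fluorescence (FLIPR Tetra) in cells seeded one day earlier at 100,000/well, loaded with dye for 1 h and exposed to compound for 1 h at room temperature before agonist. Peak RFU, minus the no-agonist background, was referenced to the mean of the agonist wells.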
row,IC50 [nM],Compound
1,< 2000,"O=C(CC12CC3CC(CC(C3)C1)C2)Nc1cccc2nc(C(=O)N3CCC(CCO)CC3)cn12 [Compound 423, 2-adamantan-1-yl-N-(2-{[4-(2-hydroxyethyl)piperidin-1-yl]carbonyl}imidazo [1,2-a]pyridin-5-yl)acetamide]"
2,< 2000,"O=C(CC12CC3CC(CC(C3)C1)C2)Nc1cccc2nc(C(=O)N3CCC(CO)CC3)cn12 [Compound 424, 2-adamantan-1-yl-N-(2-{[4-(hydroxymethyl)piperidin-1-yl]carbonyl}imidazo[1,2-a]pyridin-5-yl)acetamide]"
3,< 2000,"O=C(CC12CC3CC(CC(C3)C1)C2)Nc1cccc2nc(C(=O)N3CCC(O)CC3)cn12 [Compound 426, 2-adamantan-1-yl-N-{2-[(4-hydroxypiperidin-1-yl)carbonyl]imidazo [1,2-a]pyridin-5-yl}acetamide]"
4,< 2000,"CN(CCC(C)(C)O)C(=O)c1cn2c(NC(=O)CC34CC5CC(CC(C5)C3)C4)cccc2n1 [Compound 431, 5-[(adamantan-1-ylacetyl)amino]-N-(3-hydroxy-3-methylbutyl)-N-methylimidazo[1,2-a]pyridine-2-carboxamide]"
5,< 2000,"CC(C)(CO)NC(=O)c1cn2c(NC(=O)CC34CC5CC(CC(C5)C3)C4)cccc2n1 [Compound 437, 5-[(adamantan-1-ylacetyl)amino]-N-(2-hydroxy-1,1-dimethylethyl)imidazo [1,2-a]pyridine-2-carboxamide]"
6,< 2000,"O=C(CC12CC3CC(CC(C3)C1)C2)Nc1cccc2nc(C(=O)NC3(CO)CCCC3)cn12 [Compound 441, 5-[(adamantan-1-ylacetyl)amino]-N-[1-(hydroxymethyl)cyclopentyl]imidazo[1,2-a]pyridine-2-carboxamide]"
7,< 2000,"O=C(NCC12CC3CC(CC(C3)C1)C2)c1cccc2nc(CS(=O)(=O)c3nnc[nH]3)cn12 [Compound 449, N-(adamantan-1-ylmethyl)-2-[(4H-1,2,4-triazol-3-ylsulfonyl)methyl] imidazo [1,2-a]pyridine-5-carboxamide]"
8,< 2000,"CCOC(=O)C(C)(C)c1cn2c(C(=O)NCC34CC5CC(CC(C5)C3)C4)cccc2n1 [Compound 450, ethyl 2-{5-[(adamantan-1-ylmethyl)carbamoyl]imidazo[1,2-a]pyridin-2-yl}-2-methylpropanoate]"
9,< 2000,"CCOC(=O)C(C)(C)c1cn2c(C(=O)N(C)CC34CC5CC(CC(C5)C3)C4)cccc2n1 [Compound 451, ethyl 2-{5-[(adamantan-1-ylmethyl)(methyl)carbamoyl]imidazo [1,2-a]pyridin-2-yl} -2-methyl-propanoate]"
10,< 2000,"CCOC(=O)N1CCN(C(=O)c2cn3c(C(=O)NC[C@@H]4CC[C@H]5C[C@@H]4C5(C)C)cccc3n2)CC1 [Compound 452, ethyl 4-{[5-({[(1S,2R,5S)-6,6-dimethylbicyclo[3.1.1]hept-2-yl]methyl}carbamoyl)imidazo[1,2-a]pyridin-2-yl]carbonyl}piperazine-1-carboxylate]"
11,< 2000,"CC1(C)[C@H]2CC[C@@H](CNC(=O)c3cccc4nc(C(=O)N5CCCC5)cn34)[C@@H]1C2 [Compound 454, N-{[(1S,2R,5S)-6,6-dimethylbicyclo[3.1.1]hept-2-yl]methyl}-2-(pyrrolidin-1-ylcarbonyl) imidazo[1,2-a]pyridine-5-carboxamide]"
12,< 2000,"CCN(CC)C(=O)C1CCCN(C(=O)c2cn3c(C(=O)NC[C@@H]4CC[C@H]5C[C@@H]4C5(C)C)cccc3n2)C1 (stereo partly drawn) [Compound 456, 2-{[3-(diethylcarbamoyl)piperidin-1-yl]carbonyl}-N-{[(1S,2R,5S)-6,6-dimethylbicyclo[3.1.1]hept-2-yl]methyl}imidazo[1,2-a]pyridine-5-carboxamide]"
13,< 2000,"CC(=O)NC1CCN(C(=O)c2cn3c(C(=O)NC[C@@H]4CC[C@H]5C[C@@H]4C5(C)C)cccc3n2)C1 (stereo partly drawn) [Compound 457, 2-[(3-acetamidopyrrolidin-1-yl)carbonyl]-N-{[(1S,2R,5S)-6,6-dimethylbicyclo[3.1.1]hept-2-yl]methyl}imidazo[1,2-a]pyridine-5-carboxamide]"
14,< 2000,"CCCN(C)C(=O)c1cn2c(C(=O)NC[C@@H]3CC[C@H]4C[C@@H]3C4(C)C)cccc2n1 [Compound 460, 5-N-{[(1S,2R,5S)-6,6-dimethylbicyclo[3.1.1]hept-2-yl]methyl}-2-N-methyl-2-N-propylimidazo[1,2-a]pyridine-2,5-dicarboxamide]"
15,< 2000,"CC1(C)[C@H]2CC[C@@H](CNC(=O)c3cccc4nc(C(=O)N5CCSCC5)cn34)[C@@H]1C2 [Compound 462, N-{[(1S,2R,5S)-6,6-dimethylbicyclo[3.1.1]hept-2-yl]methyl}-2-(thiomorpholin-4-ylcarbonyl)imidazo[1,2-a]pyridine-5-carboxamide]"
16,< 2000,"CC1CCN(C(=O)c2cn3c(C(=O)NC[C@@H]4CC[C@H]5C[C@@H]4C5(C)C)cccc3n2)CC1 [Compound 463, N-{[(1S,2R,5S)-6,6-dimethylbicyclo[3.1.1]hept-2-yl]methyl}-2-[(4-methylpiperidin-1-yl)carbonyl]imidazo[l, 2-a]pyridine-5-carboxamide]"
17,< 2000,"CC1(C)[C@H]2CC[C@@H](CNC(=O)c3cccc4nc(C(=O)N5CCOCC5)cn34)[C@@H]1C2 [Compound 464, N-{[(1S,2R,5S)-6,6-dimethylbicyclo[3.1.1]hept-2-yl]methyl}-2-(morpholin-4-ylcarbonyl)imidazo [1,2-a]pyridine-5-carboxamide]"
18,< 2000,"CC1(C)[C@H]2CC[C@@H](CNC(=O)c3cccc4nc(C(=O)N5CCCCC5)cn34)[C@@H]1C2 [Compound 465, N-{[(1S,2R,5S)-6,6-dimethylbicyclo[3.1.1]hept-2-yl]methyl}-2-(piperidin-1-ylcarbonyl)imidazo[1,2-a]pyridine-5-carboxamide]"
19,< 2000,"COCCN(C)C(=O)c1cn2c(C(=O)NC[C@@H]3CC[C@H]4C[C@@H]3C4(C)C)cccc2n1 [Compound 466, 5-N-{[(1S,2R,5S)-6,6-dimethylbicyclo[3.1.1]hept-2-yl]methyl}-2-N-(2-methoxyethyl)-2-N-methylimidazo[1,2-a]pyridine-2,5-dicarboxamide]"
20,< 2000,"CC(C)CN(C)C(=O)c1cn2c(C(=O)NC[C@@H]3CC[C@H]4C[C@@H]3C4(C)C)cccc2n1 [Compound 467, 5-N-{[(1S,2R,5S)-6,6-dimethylbicyclo[3.1.1]hept-2-yl]methyl}-2-N-isobutyl-2-N-methylimidazo[1,2-a]pyridine-2,5-dicarboxamide]"
21,< 2000,"CN(CC1OCCO1)C(=O)c1cn2c(C(=O)NC[C@@H]3CC[C@H]4C[C@@H]3C4(C)C)cccc2n1 [Compound 468, 5-N-{[(1S,2R,5S)-6,6-dimethylbicyclo[3.1.1]hept-2-yl]methyl}-2-N-(1,3-dioxolan-2-ylmethyl)-2-N-methylimidazo[1,2-a]pyridine-2,5-dicarboxamide]"
22,< 2000,"CCN(C)C(=O)c1cn2c(C(=O)NC[C@@H]3CC[C@H]4C[C@@H]3C4(C)C)cccc2n1 [Compound 469, 5-N-{[(1S,2R,5S)-6,6-dimethylbicyclo[3.1.1]hept-2-yl]methyl}-2-N-ethyl-2-N-methylimidazo[1,2-a]pyridine-2,5-dicarboxamide]"
23,< 2000,"CN(C)C(=O)c1cn2c(C(=O)NC[C@@H]3CC[C@H]4C[C@@H]3C4(C)C)cccc2n1 [Compound 470, 5-N-{[(1S,2R,5S)-6,6-dimethylbicyclo[3.1.1]hept-2-yl]methyl}-2-N,2-N-dimethylimidazo[1,2-a]pyridine-2,5-dicarboxamide]"
24,< 2000,"CCCCN(C)C(=O)c1cn2c(C(=O)NC[C@@H]3CC[C@H]4C[C@@H]3C4(C)C)cccc2n1 [Compound 471, 2-N-butyl-5-N-{[(1S,2R,5S)-6,6-dimethylbicyclo[3.1.1]hept-2-yl]methyl}-2-N-methylimidazo[1,2-a]pyridine-2,5-dicarboxamide]"
25,< 2000,"COC[C@@H]1CCCN1C(=O)c1cn2c(C(=O)NC[C@@H]3CC[C@H]4C[C@@H]3C4(C)C)cccc2n1 [Compound 473, N-{[(1S,2R,5S)-6,6-dimethylbicyclo[3.1.1]hept-2-yl]methyl}-2-{[(2S)-2-(methoxymethyl)pyrrolidin-1-yl]carbonyl}imidazo[1,2-a]pyridine-5-carboxamide]"
26,< 2000,"CCCN(CC1CC1)C(=O)c1cn2c(C(=O)NC[C@@H]3CC[C@H]4C[C@@H]3C4(C)C)cccc2n1 [Compound 474, 2-N-(cyclopropylmethyl)-5-N-{[(1S,2R,5S)-6,6-dimethylbicyclo[3.1.1]hept-2-yl]methyl}-2-N-propylimidazo[1,2-a]pyridine-2,5-dicarboxamide]"
27,< 2000,"CCCCN(CC)C(=O)c1cn2c(C(=O)NC[C@@H]3CC[C@H]4C[C@@H]3C4(C)C)cccc2n1 [Compound 475, 2-N-butyl-5-N-{[(1S,2R,5S)-6,6-dimethylbicyclo[3.1.1]hept-2-yl]methyl}-2-N-ethylimidazo[1,2-a]pyridine-2,5-dicarboxamide]"

# Source: patent US8431593B2, “Heteroaryl amide derivatives” (H. Lundbeck A/S, priority 2006, dated 2013)
